Data published in patent US8003610B2, “Bradykinin B2 receptor antagonist peptide from amphibian skin” (priority 2003, dated 2011).
Square brackets hold non-standard residues; d marks the D form. Ends that are not written are not given here. pGlu = O=C1CC[C@@H](C(=O)O)N1

Key:
[1] = test system: endothelial tube structures on Matrigel matrix plates; experiment: Matrigel tube formation assay; format: cell-based; details: FIG. 8
Text: FIG. 8 is a graph comparing the ability of kinestatin (▪) and fumagillin (▴) to inhibit the formation of endothelial tube structures on Matrigel matrix plates.

[2] = test system: human microvascular endothelial cells (HMEC-1); experiment: endothelial cell migration into 1 cm wound in cell monolayer; format: cell-based
Experimental: FIG. 9 is a graph comparing the ability of kinestatin (▪) and fumagillin (▾) to inhibit the migration of human microvascular endothelial cells (HMEC-1) into a wound in a dose- and time-dependent manner
FIG. 10 is a time response curve showing the delay in complete closure of endothelial cell 1 cm wounds in the presence of kinestatin (▪) and non-treated control cells (▴).
Expt. […] Kinestatin prolonged wound closure time by 100% from 7 h (control) to 14 h (treatment) (FIG. 10).

[3] = test system: human microvascular endothelial cell line (HMEC-1); experiment: proliferation of endothelial cell line; format: cell-based; details: FIG. 11
Text: FIG. 11 is a graph comparing the effect of control (▪), kinestsin (Q-9-R-(-7) (▴) and fumagillin (▾) on the proliferation of the human microvascular endothelial cell line (HMEC-1).

[4] = test system: recombinantly-expressed receptor (of ornithokinin); details: cited from earlier work
B1-receptor = biological target: T1, B1-receptor (Oryctolagus cuniculus, UniProt P48748); details: cited from earlier work
T1 construct: in B1-receptor-rich preparations, such as the rabbit aorta; host or cells: rabbit aorta tissue preparation
T1 sequence (P48748 1-352): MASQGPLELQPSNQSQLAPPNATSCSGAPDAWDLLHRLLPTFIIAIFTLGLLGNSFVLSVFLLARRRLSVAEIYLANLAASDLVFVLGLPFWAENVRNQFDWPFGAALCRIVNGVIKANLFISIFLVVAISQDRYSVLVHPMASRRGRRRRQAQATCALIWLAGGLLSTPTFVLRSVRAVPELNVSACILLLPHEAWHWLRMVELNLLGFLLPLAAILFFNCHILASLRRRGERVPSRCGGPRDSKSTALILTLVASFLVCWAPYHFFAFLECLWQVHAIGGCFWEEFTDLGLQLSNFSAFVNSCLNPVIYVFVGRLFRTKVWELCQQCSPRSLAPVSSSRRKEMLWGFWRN

[5] = biological target: autologous receptor (of ornithokinin) cloned from chicken; details: (Tyr^0)-radioiodinated ornithokinin as competing ligand; read-out: affinity; cited from earlier work
bradykinin B2 receptors = biological target: T2, bradykinin B2 receptors (Rattus norvegicus, UniProt P25023); experiment: inhibition of bradykinin-induced relaxation in phenylephrine pre-constricted rat tail artery preparation
T2 construct: phenylephrine pre-constricted rat tail artery preparation; from tissue; host or cells: rat tail artery (arterial smooth muscle preparation)
T2 sequence (P25023 1-396): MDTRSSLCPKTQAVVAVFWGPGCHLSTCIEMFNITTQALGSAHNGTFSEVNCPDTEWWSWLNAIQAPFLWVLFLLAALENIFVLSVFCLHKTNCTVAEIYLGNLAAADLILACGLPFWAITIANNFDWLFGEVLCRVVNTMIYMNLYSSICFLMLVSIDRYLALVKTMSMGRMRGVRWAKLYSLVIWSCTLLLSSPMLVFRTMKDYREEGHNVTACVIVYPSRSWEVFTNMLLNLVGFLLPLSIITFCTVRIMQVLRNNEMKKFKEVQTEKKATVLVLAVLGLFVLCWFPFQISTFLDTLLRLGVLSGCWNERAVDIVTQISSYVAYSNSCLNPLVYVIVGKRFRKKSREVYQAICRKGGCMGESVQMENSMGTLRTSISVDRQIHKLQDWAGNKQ
Experimental: Male albino Wistar rats (200-250 g) were euthanised by asphyxiation followed by cervical dislocation. The tail artery was prepared as described previously (Chen T et al, Peptides. 2002; 23:1547-1555, Chen T et al, Eur. J. Biochem. 2002; 269:4693-4700, Hirst et al Br. J. Radiol. 1994; 67:795-799). After perfusion of arterial preparations with 1×10^−5M phenylephrine to obtain constriction plateaux, relative relaxation was recorded as described below following applications of reconstituted 100 μl aliquots of HPLC fraction samples (1-240) from B. maxima skin secretion. […] The preparations were perfused as before with phenylephrine (1×10^−5M) until constriction plateaux were obtained. Following this, combinations of phenylephrine (1×10^−5M) and reconstituted non-myoactive fractions were perfused through individual preparations for 20 min. Immediately after this, the perfusate was replaced by a combination of phenylephrine (1×10^−5M), bradykinin (1×10^−6M) and reconstituted individual fractions. Changes in arterial smooth muscle tone were measured by a pressure transducer system and the percentage relative relaxations induced by bradykinin in the presence of reconstituted fractions were calculated using the MacLab computer package.
Arterial smooth muscle preparations were prepared as described previously and treated with phenylephrine (1×10^−5M) until constriction plateaux were achieved. Following this a series of experiments were performed to address the pharmacological characterization of the novel peptide, kinestatin. 1) Separate dose response curves were constructed for bradykinin and kinestatin using concentrations of both peptides in the range of 10^−11 to 10^−5M. […] The preparations were prepared as described before. […] Following this, phenylephrine (1×10^−5M) was added to the antagonist solution and perfused for 10 min to develop contraction of the arterial smooth muscle. On obtaining stable plateaux of constriction, the perfusate was replaced by another containing phenylephrine, antagonist and bradykinin (1×10^−6M). During a 20 min perfusion period, changes in arterial pressure were recorded as described previously. In a second similar series of experiments, kinestatin (1×10^−8M) was added to each of the specific bradykinin receptor sub-type antagonist solutions prior to the procedure described above. Data were analysed by computer using Students t test available on the Graph Pad Prism™ programme.

[6] = test system: rat tail artery smooth muscle; experiment: direct relaxation of phenylephrine pre-constricted rat tail artery preparation; details: synthetic replicate, in the effective molar concentration range of bradykinin, FIG. 4A
Experimental: Male albino Wistar rats (200-250 g) were euthanised by asphyxiation followed by cervical dislocation. The tail artery was prepared as described previously (Chen T et al, Peptides. 2002; 23:1547-1555, Chen T et al, Eur. J. Biochem. 2002; 269:4693-4700, Hirst et al Br. J. Radiol. 1994; 67:795-799). After perfusion of arterial preparations with 1×10^−5M phenylephrine to obtain constriction plateaux, relative relaxation was recorded as described below following applications of reconstituted 100 μl aliquots of HPLC fraction samples (1-240) from B. maxima skin secretion. This was carried out to exclude those fractions (25) containing direct arterial smooth muscle relaxant activity. […] Changes in arterial smooth muscle tone were measured by a pressure transducer system and the percentage relative relaxations induced by bradykinin in the presence of reconstituted fractions were calculated using the MacLab computer package.
Arterial smooth muscle preparations were prepared as described previously and treated with phenylephrine (1×10^−5M) until constriction plateaux were achieved. […] 2) The effect of prior addition of a range of concentrations of kinestatin on the observed activity of subsequently added bradykinin at its maximally effective concentration (10^−6M) was determined. […] During a 20 min perfusion period, changes in arterial pressure were recorded as described previously. […]

CO[C@@H]1[C@H](OC(=O)/C=C/C=C/C=C/C=C/C(=O)O)CC[C@]2(CO2)[C@H]1[C@@]1(C)O[C@@H]1CC=C(C)C [fumagillin, reference compound]
effect on tube formation [1]: inhibitory effect | maximal inhibitory effect on migration ([2]; FIG. 9): same maximal inhibitory effect | cell proliferation [3]: profound effects on inhibition of cell proliferation

Arg-Arg-Pro-Hyp-Gly-Thi-Ser-Tic-Oic-Arg [HOE-140]
function at receptor [4]: partial agonist

RPPGFSPLR [Leu^8-bradykinin, bradykinin analogue, found in pickerel frog skin]
antagonism of bradykinin and des-Arg^9 bradykinin (B1-receptor; B1-receptor-rich preparations, rabbit aorta): potent antagonist | bradykinin agonist activity (B1-receptor; previous pharmacological studies): devoid of bradykinin agonist activity

RPPGFTPLR [ornithokinin]
Kd [5]: 4.7 nM

pGlu-Ile-Pro-Gly-Leu-Gly-Pro-Leu-Arg.NH2 ([pGlu]IPGLGPLR-NH2; SMILES CC[C@H](C)[C@H](NC(=O)[C@@H]1CCC(=O)N1)C(=O)N1CCC[C@H]1C(=O)NCC(=O)N[C@@H](CC(C)C)C(=O)NCC(=O)N1CCC[C@H]1C(=O)N[C@@H](CC(C)C)C(=O)N[C@@H](CCCNC(=N)N)C(N)=O; listed as Bombina maxima) [kinestatin, bradykinin B2 receptor antagonist nonapeptide from skin secretion of Bombina maxima; synthetic replicate tested]
potency as bradykinin antagonist relative to Leu^8 bradykinin (bradykinin B2 receptors): ~10 × | inhibition of bradykinin-induced relaxation in HOE 140-treated preparations (bradykinin B2 receptors; kinestatin 1×10^−8M added, HOE 140 3×10^−7M, p=0.0015, n=6): significant inhibition | inhibition of bradykinin-induced relaxation in des Arg HOE 140-treated preparations (bradykinin B2 receptors; kinestatin 1×10^−8M added, des Arg HOE 140 3×10^−7M, p=0.033, n=6): significant inhibition | effect on bradykinin-induced relaxation dose response curve (bradykinin B2 receptors; kinestatin at 1×10^−8M, FIG. 4C): Virtual total abolition | maximally inhibitory concentration (bradykinin B2 receptors; prior addition, bradykinin dose response): 10^−8 M | receptor mediating the inhibition (bradykinin B2 receptors; rat tail arterial smooth muscle): antagonism at B2 receptors | block of maximal bradykinin relaxing activity (bradykinin B2 receptors; ten nanomolar kinestatin, one micromolar bradykinin): almost totally blocked | mechanism of inhibition (bradykinin B2 receptors; within this concentration range): non-competitive mechanism | effect on tube formation [1]: inhibitory effect | myorelaxant activity [6]: devoid of myorelaxant activity | maximal inhibitory effect on migration ([2]; FIG. 9): same maximal inhibitory effect | potency relative to fumagillin ([2]; FIG. 9): more potent on a molar basis | endothelial cell migration ([2]; time to half closure of 1 cm wide wound): inhibition in endothelial cell migration | wound closure time ([2]; treatment, FIG. 10): 14 h | prolongation of wound closure time ([2]; versus control, FIG. 10): 100% | cell proliferation [3]: profound effects on inhibition of cell proliferation
